Residues, ends and D or L forms follow the SMILES beside them.
How the values were obtained:
[1] = tested on: circulating CD8^+ T cells; assay: ex-vivo combinatorial HLA-A2 MMr assay on PBMCs; type: cell-based, human; details: for cognate naïve CD8^+ T-cell repertoire (validation of candidate epitope): frequency 1-50/10^6 CD8^+ T cells, clustered MMr staining, ≥50% of individuals; for median frequency in peripheral blood: T1D patients; for frequency of MMr^+ CD8^+ T cells, in words: HLA-A2^+ recent-onset T1D and healthy subjects
[2] = tested on: pancreas-infiltrating cells of HLA-A2^+ T1D patients; assay: in-situ HLA-A2 MMr staining on pancreas sections; type: cell-based, human; details: 2 HLA-A2^+ T1D cases, nPOD tissue sections
Method: In-situ staining was performed as described (Culina et al., 2018). Unfixed, frozen sections were dried for 2 h, loaded with 1 μg of MMrs overnight at 4° C., washed gently with phosphate-buffered saline and fixed in 2% paraformaldehyde for 10 min. After a further wash, endogenous peroxidase activity was blocked with 0.3% H2O2. Sections were then incubated serially with rabbit anti-phycoerythrin, horseradish peroxidase-conjugated swine anti-rabbit and 3,3′-diaminobenzidine tetrahydrochloride substrate (ThermoFisher). After a final wash, sections were counterstained with hematoxylin, dehydrated via sequential passages in 95-100% ethanol and xylene, mounted and analyzed using a Nikon Eclipse Ni microscope with NIS-Elements Analysis D software v4.40.

[3] = tested on: islet-infiltrating CD8+ T cells of NOD mice; assay: IFN-γ recall assay of islet-infiltrating cells against peptide-pulsed K^d+ L cells; type: cell-based; details: for positive mice (number/tested) / positive mice, percentage: 12-16-week-old NOD females, positive = IFN-γ^+CD8^+ cells >1.8%; for median percentage of IFN-γ^+CD8^+ cells / positive range of percentage of IFN-γ^+CD8^+ cells: 6 h peptide recall with brefeldin-A, intracellular IFN-γ staining
Description: Peptides predicted to be restricted by the murine MHC Class I K^d molecule were identified using prediction algorithms and scanning of the whole murine protein sequence. Peptides were first tested in pools, and positive pools subsequently deconvoluted for reactivity against individual peptides. To this end, islets were isolated from 12-16-week-old NOD mice by collagenase digestion and put in culture with recombinant human IL-2 (Proleukin, Novartis) for 5 days as described (Brezar et al, Eur J Immunol 2012). Cells exiting the islets were subsequently collected and subjected to recall assays against K^d+ L antigen-presenting cells pulsed with the indicated peptides for 6 h in the presence of brefeldin-A, followed by intracellular staining for IFN-γ. The TUM, Ins B15-23 and IGRP 206-214 peptides were included as negative control and positive controls, respectively.
We performed experiments in 12-16-week-old NOD females by analyzing the reactivity of islet-infiltrating CD8^+ T cells to peptides derived from murine Ucn3 and Pcsk2 and predicted to be restricted by the murine MHC molecule K^d. A positive response was defined as a percentage of IFN-γ^+CD8^+ cells >1.8%, which was the median response observed for the negative control TUM peptide.

HLA-A*02:01 [4] = target: T1, HLA-A*02:01 (human); assay: one of the 18 HLA-eluted peptides with verified HLA-A2 binding; loaded on HLA-A2 multimers
T1 construct: HLA-A2 multimers were produced as in Leisner et al. 2008; also called HLA-A2; A2

HLA-A*02:01 [5] = target: T1, HLA-A*02:01; assay: LC-MS/MS of peptides eluted from W6/32-purified pHLA Class I complexes of beta cells; the HLA-A2 restriction in this row is predicted
Method: The HLA class I peptidome of the ECN90 β-cell line was obtained from 5 biological replicates. A single biological replicate was available for primary human islets. […] Beads were subsequently loaded on GELoader Tips (20 μl; ThermoFisher) and washed before elution of pHLA complexes with 10% acetic acid.
Eluted peptides and the associated HLA Class I heavy chain and β2-microglobulin obtained from 20×10⁶ cells were concentrated to 20 μl by vacuum centrifugation, acidified with 10 μl of 1% aqueous formic acid (Normapur) and loaded on C18 stage tips (ThermoFisher) prewashed with 100% methanol and equilibrated with acetonitrile (ACN)/0.1% formic acid in LC-MS grade water (aq. formic acid) 2:98 (v/v). After loading, the C18 stage tips were washed with ACN/0.1% aq. formic acid 2:98 (v/v) and peptides separated from the more hydrophobic HLA Class I heavy chain and β2-microglobulin species by eluting them with ACN/0.1% aq. formic acid 1:1 (v/v). […] For MS analysis, 5 μl of this peptide solution were used.
Peptides were loaded and separated by nanoflow HPLC (RSLC Ultimate 3000, ThermoFisher Scientific) on a reversed phase nanocolumn (C18 Acclaim PepMap 100, 50 cm length, 75 μm i.d. ThermoFisher Scientific) coupled on-line to a nanoESI Q Exactive mass spectrometer (ThermoFisher Scientific).

Molecule | cognate naïve CD8^+ T-cell repertoire (validation of candidate epitope) ([1]; HLA-A2^+ healthy donors) | positive mice (number/tested) [3] | positive mice, percentage [3] | median percentage of IFN-γ^+CD8^+ cells [3] | positive range of percentage of IFN-γ^+CD8^+ cells [3] | also measured
SCG5186-195: HLA-eluted HLA-A2-restricted SCG5 (7B2) peptide (YLQGQRLDNV) | validated |  |  |  |  | 
ISL1276-284: HLA-eluted HLA-A2-restricted peptide of insulin gene enhancer protein ISL1 (GLQANPVEV) | validated |  |  |  |  | median frequency in peripheral blood [1]: 7.2×10^−6; in-situ MMr staining of pancreas sections [2]: MMr^+ cells could be detected
KCNK16129-137: HLA-eluted HLA-A2-restricted KCNK16 peptide (ALLGIPLNV) | validated |  |  |  |  | 
UCN31-9: HLA-eluted HLA-A2-restricted urocortin-3 peptide (MLMPVHFLL) | validated |  |  |  |  | frequency of MMr^+ CD8^+ T cells, in words [1]: particularly high and clustered
GYRDINEIDI [Pcsk2 109-118, peptide derived from murine Pcsk2, predicted to be restricted by K^d] |  | 6/8 | 50% | 1.8% | 1.9-4.3% | 
TYFLLPLLL [Ucn3 5-13, peptide derived from murine Ucn3, predicted to be restricted by K^d] |  | 8/12 | 67% | 2.3% | 2.1-8.6% | 
IAPP15-17/IAPP5-10: peptide splice product from fusion of IAPP15-17/IAPP5-10 (VALKLQVFL) |  |  |  |  |  | donors with recognition ([1]; HLA-A2^+ healthy donors, screening): 1 of 6; median frequency in peripheral blood [1]: 1.6×10^−6; in-situ MMr staining of pancreas sections [2]: MMr^+ cells could be detected
CHGA344-352: HLA-eluted HLA-A2-restricted chromogranin A peptide (KMDQLAKEL) | validated |  |  |  |  | 
VFSCLNTAL [Ucn3 32-40, peptide derived from murine Ucn3, predicted to be restricted by K^d] |  | 8/12 | 67% | 1.9% | 1.9-3.3% | 
ZnT8186-184: positive control islet peptide (VAANIVLTV; UniProt Q8IWU4 186-194, looked up, fragment) [reference compound] |  |  |  |  |  | in-situ MMr staining of pancreas sections [2]: MMr^+ cells could be detected
CC(C)C[C@H](NC(=O)[C@H](CCC(=O)O)NC(=O)[C@@H](NC(=O)[C@H](CC(C)C)NC(=O)[C@H](Cc1ccccc1)NC(=O)[C@H](Cc1c[nH]cn1)NC(=O)[C@H](CC(N)=O)NC(=O)[C@@H](NC(=O)[C@@H](N)Cc1ccccc1)[C@@H](C)O)C(C)C)C(=O)O (H-FTNHFLVEL-OH; N-terminus and C-terminus assumed) | validated |  |  |  |  | 
RYLEHVQAVI [Pcsk2 501-510, peptide derived from murine Pcsk2, predicted to be restricted by K^d] |  | 5/8 | 63% | 2.7% | 2.1-8.0% | 
SCG5-009186-194: HLA-eluted peptide from SCG5-009 mRNA splice variant (FLSGAVNRL) | validated |  |  |  |  | frequency of MMr^+ CD8^+ T cells, in words [1]: particularly high and clustered
LYDESCSSTL [Pcsk2 341-350, peptide derived from murine Pcsk2, predicted to be restricted by K^d] |  | 6/8 | 75% | 3.3% | 1.9-5.2% | 
KIF1A1347-1355: HLA-eluted HLA-A2-restricted Kinesin Family Member 1A peptide (VLDTSVAYV) | validated |  |  |  |  | 
IGRP 206-214: positive control peptide in NOD recall assay (VYLKTNVFL; UniProt Q9Z186 206-214, looked up, fragment) [reference compound] |  | 13/13 | 100% | 12.5% | 4.5-25.3% | 
GLQANPVEV (peptide, UniProt P61371 276-284, looked up, range 276-284; Synthetic peptide) [insulin gene enhancer protein ISL1 276-284 peptide] |  |  |  |  |  | binding result (HLA-A*02:01 [4]): binds
FTNHFLVEL [PCSK2 30-38 peptide (FTNHFLVEL)] |  |  |  |  |  | binding result (HLA-A*02:01 [5]): binds
ALLGIPLNV (peptide, UniProt Q96T55 129-137, looked up, range 129-137; Synthetic peptide) [KCNK16 129-137 peptide] |  |  |  |  |  | binding result (HLA-A*02:01 [4]): binds

From patent publication US20210023209A1, “ANTIGENIC PEPTIDES DERIVING FROM PCSK2 AND USES THEREOF FOR THE DIAGNOSIS AND TREATMENT OF TYPE 1 DIABETES” (INSERM (INSTITUT NATIONAL DE LA SANTÉ ET DE LA RECHERCHE …, priority 2018, published 2021)
